Experimental data reported in patent US20240131032A1, “AN ACTIVITY-GUIDED MAP OF ELECTROPHILE-CYSTEINE INTERACTIONS IN PRIMARY HUMAN IMMUNE CELLS” (The Scripps Research Institute, priority 2019, published 2024).

What was measured:
[1] = target: T1, NuRD complex members (MBD2, MBD3, GATAD2B) (Homo sapiens, UniProt Q8WXI9); experiment: Cysteine reactivity profiles of NuRD complex members in treated T cells; assay type: binding
T1 construct: endogenous in cells; host or cells: primary human T cells, 3 h treatment
Description: (§1) FIG. 7B is a scatter plot representation of protein abundance changes caused by BPK-25 (10 μM, 24 h) in two independent replicate experiments, with decreases in NuRD complex components highlighted in red. FIG. 7C is a heatmap of top proteins with decreased abundance in BPK-25-treated T cells showing that the subset of these proteins in the NuRD complex (asterisks) were largely unaltered by other active compounds and blocked in their degradation by co-treatment with the proteasome inhibitor MG132. […] FIG. 7E is a bar graph […] showing time-dependent reductions in NuRD complex members in human T cells treated with BPK-25 (10 μM). Left, representative western blots. Right, quantification of changes in protein. […]
(§2) At individual TMT experiment level, the following filters were applied to remove low-quality peptides: removal of non-unique peptides; removal of half-tryptic peptides; removal of peptides with more than one internal miscleaved site; removal of peptides with low (<10,000) sum of reporter ion intensities for control channels, and peptides with high variation between the replicate control channels (coefficient of variance >0.5). R values (compound-treated vs. DMSO-treated) for each peptide entry were calculated using the reporter ion intensities of DMSO and compound treated TMT channels for each treatment group with a maximum ratio cap of 20. […]

[2] = target: T2, BIRC3 (Homo sapiens, UniProt Q13489, C28A); experiment: Western blot of BIRC3 content in human T cells; assay type: cell-based; settings: EV-3 10 μM, 24 h; transfected primary human T cells
T2 construct: endogenous in cells; host or cells: primary human T cells

[3] = test system: NuRD complex members (MBD2, MBD3, GATAD2B); experiment: Cysteine reactivity profiles of NuRD complex members in treated T cells; assay type: binding, human; settings: 3 h treatment
Description: as §1, §2

T1 sequence (Q8WXI9 whole entry, one chain of several): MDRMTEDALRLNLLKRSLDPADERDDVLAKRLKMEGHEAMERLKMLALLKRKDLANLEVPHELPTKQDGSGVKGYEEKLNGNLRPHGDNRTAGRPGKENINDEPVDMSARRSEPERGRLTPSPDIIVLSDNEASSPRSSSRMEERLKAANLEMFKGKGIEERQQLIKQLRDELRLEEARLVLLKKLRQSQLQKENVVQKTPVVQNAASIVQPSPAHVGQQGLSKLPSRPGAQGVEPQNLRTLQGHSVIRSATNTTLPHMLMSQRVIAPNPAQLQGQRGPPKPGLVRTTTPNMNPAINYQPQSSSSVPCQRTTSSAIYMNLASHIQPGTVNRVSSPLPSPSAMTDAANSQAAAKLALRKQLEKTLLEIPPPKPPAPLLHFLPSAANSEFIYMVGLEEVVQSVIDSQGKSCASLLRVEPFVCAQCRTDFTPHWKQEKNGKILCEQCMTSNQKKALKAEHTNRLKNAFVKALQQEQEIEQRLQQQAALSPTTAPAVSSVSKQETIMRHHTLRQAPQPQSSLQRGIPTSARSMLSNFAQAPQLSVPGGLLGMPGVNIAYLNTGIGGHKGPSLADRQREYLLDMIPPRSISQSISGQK
T2 sequence (Q13489 whole entry C28A): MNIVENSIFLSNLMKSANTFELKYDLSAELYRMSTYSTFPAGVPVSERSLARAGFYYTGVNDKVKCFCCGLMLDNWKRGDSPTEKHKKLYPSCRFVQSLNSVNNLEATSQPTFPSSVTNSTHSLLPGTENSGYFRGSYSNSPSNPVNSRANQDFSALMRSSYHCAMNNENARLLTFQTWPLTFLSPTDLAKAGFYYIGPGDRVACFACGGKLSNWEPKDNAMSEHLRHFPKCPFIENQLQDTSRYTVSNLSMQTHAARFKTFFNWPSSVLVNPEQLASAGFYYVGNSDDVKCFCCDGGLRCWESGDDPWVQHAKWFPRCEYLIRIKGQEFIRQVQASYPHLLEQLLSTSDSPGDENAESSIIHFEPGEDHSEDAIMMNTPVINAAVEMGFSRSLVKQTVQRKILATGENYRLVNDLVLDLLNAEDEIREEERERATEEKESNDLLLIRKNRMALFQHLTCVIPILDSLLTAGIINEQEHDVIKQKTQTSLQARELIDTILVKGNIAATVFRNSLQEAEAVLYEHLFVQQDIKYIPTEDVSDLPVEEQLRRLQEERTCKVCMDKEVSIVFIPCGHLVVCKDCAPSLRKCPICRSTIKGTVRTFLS

COC(=O)/C=C/C(=O)OC [DMF, reference compound]
apparent reactivity of C308 of GATAD2B [1]: decreased the apparent reactivity

O=C(CCl)N1CCN(S(=O)(=O)c2ccc(-c3ccncc3)cc2)CC1 [EV-3]
FLAG-tagged BIRC3 C28A mutant content [2]: but not cysteine mutants

C=CC(=O)N(Cc1cccc(Cl)n1)c1ccc(C(=O)Nc2ccccc2)nc1 [BPK-25]
reduction in C10/11 and C359 in MBD2, C266 in MBD3, and C308 of GATAD2B (cysteine reactivity profiles) [3]: ~50%
